According to article PMC8781472, “Two Novel Palbociclib-Resorcinol and Palbociclib-Orcinol Cocrystals with Enhanced Solubility and Dissolution Rate” (Pharmaceutics, 2021):

Assays:
[1] = Intrinsic dissolution rate (IDR) experiments; assay type: physicochemical; details: for Dissolution rate compared with PAL: hydrochloric acid solution pH 1.0; for Increase of dissolution rate compared with PAL: phosphate buffer pH 6.8
Experimental: In the IDR experiment, one side of the compact was sealed with melted wax, and the other side was not covered to contact with the solution. The temperature was set to 37 ℃, the paddle speed was 100 rpm, the samples were collected at the corresponding time points (phosphate buffer pH 6.8: 60, 120, 180, 240, 300, 360 min; acetic acid buffer pH 4.5: 1, 2, 3, 5, 7, 10 min; hydrochloric acid solution pH 1.0: […]) and supplemented with the same volume of culture base. Filtered the supernatant (0.22 μm) to remove undissolved particles. The PAL concentration was measured by an LC-20AD HPLC system (Shimadzu, Kyoto, Japan). At 40 °C, an Agilent ZORBAX Eclipse XDB-C18 column (250 mm × 4.6 mm, 5 μm, Agilent, Santa Clara, CA, USA) and a UV detector with a wavelength of 356 nm were used to separate the palbociclib. The mobile phase contained 0.1% acetic acid in methanol and water (80:20, v/v), the flow rate was 0.8 mL/min, and the isocratic elution was 10 min. The results were stated as the average of three replicated experiments.

[2] = tested on: HUVEC; test: In vitro cytotoxicity MTT assay; assay type: cell-based, human; details: normal HUVEC cell line, 48 h
Experimental: (§1) The human umbilical vein endothelial cell line (HUVEC) was a gift from Prof. F Y Chen (Xiangya Hospital, Changsha, China). The cells were grown in DMEM (Hyclone, Logan, UT, USA) supplied with 10% fetal bovine serum (Hyclone, Logan, UT, USA) and 1% penicillin/streptomycin mixture. Furthermore, all the cells were cultured at a 37 ℃, 5% CO2 humidified incubator. The cytotoxicity activity of compounds PAL, PAL-RES and PAL-ORC for normal HUVEC cell line was assessed via the MTT assay. The cells were cultured at a density of 8000 cells/well in a 96 well plate. Five different concentrations (0, 0.1, 1, 10 and 100 μM) of compounds PAL, PAL-RES and PAL-ORC in DMSO were subsequently added to the wells then incubated under 5% CO2 at 37 °C for 48 h; 50 μL of MTT (2 mg/mL) was added to each well, and the cells were incubated for another 4 h. Next, the liquid in each well was removed, and DMSO (150 μL) was added. The absorbance (OD values) at 490 nm was measured by a microplate reader (Biotek, SYNERGY HTX, VT, USA). Each concentration was tested in triplicate.

[3] = Powder dissolution (paddle method); assay type: physicochemical; details: for Equilibrium dissolution: powder, 500 mL phosphate buffer pH 6.8, 37 °C, 50 rpm, 50 mg PAL equivalent
Experimental: […] PAL, PAL-RES, and PAL-ORC were ground and passed through a 200 mesh sieve. In total, 50 mg of PAL or a PAL equivalent amount of cocrystal were weighed for the powder dissolution experiment. At 5, 10, 15, 30, 45, 60, 90, 120, 180, 240, 300, 360, 480, 600, 720, 1080, 1440 min, taken out 1 mL of the dissolved sample and […] with an equal volume of fresh medium in order to maintain a constant dissolution system. The PAL concentration was measured using the same method as the IDR part. All the experiments were conducted in triplicate.

[4] = Stress testing (high temperature, high humidity, strong illumination), analysed by PXRD; assay type: physicochemical; details: high temperature (60 °C), high humidity (92.5% RH), strong illumination (4500 LX)
Experimental: The cocrystals were subjected to a high temperature (60 °C), high humidity (92.5% RH), and strong illumination (4500 lx) condition respectively for stress testing experiments. The samples were analyzed by PXRD to detect possible solid-state transformation at 0, 5, 10 days.

[5] = Accelerated stability testing, analysed by PXRD; assay type: physicochemical; details: 40 °C/75% RH for 3 months
Experimental: For the physical stability studies, the powder samples of the cocrystals were exposed to accelerated condition (YSEI, China) with 40 °C/75% RH for three months; subsequently, the samples were analyzed by PXRD.

[6] = parameters: method as in doi:10.1021/acs.cgd.7b01281; details: cited from earlier work
[7] = In vitro cytotoxicity MTT assay; assay type: cell-based, human; details: human, normal HUVEC cell line
Experimental: as §1

[8] = In vivo pharmacokinetic experiments in rats; parameters: species or system Sprague−Dawley rats; details: SD rats, single oral dose equivalent to 5 mg/kg PAL, plasma PAL
Experimental: The PK profiles of PAL, PAL-RES and PAL-ORC were determined in adult male Sprague−Dawley rats (SD rats, 200–250 g), which were commercially obtained from Pizhou Oriental Breeding Co., Ltd. (Xuzhou, China). All the experiments were approved by the Ethics and Experimental Animal Committee of Jiangsu Ocean University (Project identification code: 202100021). The rats were housed in standard cages with constant temperature and humidity, and a 12 h light−dark cycling condition was set. Before the commencement of the studies, all the rats were fasted overnight with free access to water for 12 h. Fifteen animals were randomly assigned to three groups (n = 5/group) and intragastrically administrated with PAL, PAL-RES, and PAL-ORC in 0.5% (w/v) aqueous sodium methyl cellulose solution, respectively. A dose equivalent to 5 mg/kg body weight of PAL was used to conduct the evaluation. After the oral administration, blood collections were performed at designated time points (0.5, 1, 2, 4, 6, 8, 12, 24 and 48 h) using centrifuge tubes containing EDTA-K2. Next, the plasma samples were obtained from the whole blood by centrifuging at 4000 rpm for 10 min. The plasma samples were prepared for HPLC analysis by washing with 300 μL methanol, and the PAL concentration was measured using the same method as described in “2.10. Intrinsic dissolution rate (IDR) experiments”. Moreover, the PK parameters were calculated by Phoenix WinNonlin 6.0 pharmacokinetic software package (Certara, Princeton, NJ, USA).

Question: Which “Intrinsic dissolution rate (slope of fitted IDR line)” value ([1]; acetate buffer pH 4.5, 37 °C, 100 rpm) does the source give for CC(=O)c1c(C)c2cnc(Nc3ccc(N4CCNCC4)cn3)nc2n(C2CCCC2)c1=O.Cc1cc(O)cc(O)c1 [PAL-ORC] here?
Answer: 0.53 mg/min/cm^2

Question: What about the “Dissolution rate compared with PAL” value [1] of the same compound?
Answer: 1.2 times

Question: What about the “Increase of dissolution rate compared with PAL” value [1] of the same compound?
Answer: two times

Question: And the IC50 [2]?
Answer: 0.85 ± 0.13 µM

Question: And the Equilibrium dissolution [3]?
Answer: 49.93%

Question: What about the “Time physically stable under stress testing conditions” value [4] of the same compound?
Answer: at least 10 days

Question: And the “Physical stability (PXRD, phase transformation)” value [5]?
Answer: physically stable

Question: Which Maximum aripiprazole concentration [6] does the source give for O=C1CCc2ccc(OCCCCN3CCN(c4cccc(Cl)c4Cl)CC3)cc2N1 [ARI, aripiprazole] here?
Answer: 1.6 mg/L

Question: For Oc1cccc(O)c1 [RES, Resorcinol], which IC50 at 48 h [7] is on record?
Answer: > 100 µM

Question: Which results are given for CC(=O)c1c(C)c2cnc(Nc3ccc(N4CCNCC4)cn3)nc2n(C2CCCC2)c1=O.Oc1cccc(O)c1 [PAL-RES]?
Answer: Change of dissolution rate compared with PAL ([1]; acetate buffer pH 4.5): only a slight increase in dissolution rate; Dissolution rate compared with PAL [1]: 1.2 times; Increase of dissolution rate compared with PAL [1]: three times; IC50 [2]: 4.02 ± 0.07 µM; Equilibrium dissolution [3]: 60.22%; Time physically stable under stress testing conditions [4]: at least 10 days; Physical stability (PXRD, phase transformation) [5]: physically stable

Question: Which IC50 at 48 h [7] does the source give for CC(=O)c1c(C)c2cnc(Nc3ccc(N4CCNCC4)cn3)nc2n(C2CCCC2)c1=O [PAL, Palbociclib] here?
Answer: 2.4 ± 0.07 µM

Question: And the “Powder dissolution under acidic conditions” value ([3]; pH 1.0 or 4.5)?
Answer: dissolves completely at pH 1.0 or 4.5 within five minutes

Question: What about the Equilibrium dissolution [3] of the same compound?
Answer: 20.09%

Question: And the Vd [8]?
Answer: 20.48 L/kg

Question: What about the AUC(0-t) ([8]; male, Sprague-Dawley, rat) of the same compound?
Answer: 2620 ng·h/mL

Question: What about the Cmax ([8]; male, Sprague-Dawley, rat) of the same compound?
Answer: 347 ng/mL

Question: And the MRT ([8]; male, Sprague-Dawley, rat)?
Answer: 5.36 h

Question: What about the Tmax ([8]; male, Sprague-Dawley, rat) of the same compound?
Answer: 4 h

Question: What about the half-life ([8]; male, Sprague-Dawley, rat) of the same compound?
Answer: 19.9 h

Question: Which IC50 at 48 h [7] does the source give for Cc1cc(O)cc(O)c1 [ORC, orcinol] here?
Answer: > 100 µM
